Data published in ChEMBL document CHEMBL1146440, “Brasilidine A, a new cytotoxic isonitrile-containing indole alkaloid from the actinomycete Nocardia brasiliensis” (J Nat Prod, 1997).
Converted amounts (≈) assume the structure as drawn.

How the values were obtained:
P388 [1] = assay: Cytotoxicity against mouse P388 cells; type: functional, cell-based
CHO [2] = assay: Cytotoxicity against MDR1 gene transfected CHO cells; type: ADME, cell-based, Cavia porcellus; conditions: Cricetulus griseus
CHO [3] = assay: Cytotoxicity against CHO cells; type: cell-based, Cavia porcellus; conditions: Cricetulus griseus
L1210 = assay: Cytotoxicity against mouse L1210 cells; type: functional, cell-based
P388 [4] = assay: Cytotoxicity against mouse Adriamycin-resistant P388 cells; type: functional, cell-based

With COc1cccc2c1C(=O)c1c(O)c3c(c(O)c1C2=O)C[C@@](O)(C(=O)CO)C[C@@H]3O[C@H]1C[C@H](N)[C@H](O)[C@H](C)O1 [DOXORUBICIN] the IC50 (P388 [1]) was 0.09 µg/mL (≈ 0.166 µM), the IC50 (CHO [2]) was 0.11 µg/mL (≈ 0.202 µM) and the IC50 (CHO [3]) was 0.01 µg/mL (≈ 0.0184 µM). For the same compound, the IC50 (L1210) was 0.09 µg/mL (≈ 0.166 µM) and the IC50 (P388 [4]) was 0.55 µg/mL (≈ 1.01 µM).
